Holding throughout (type): cell-based
Assay [1] concerns human dermal fibroblasts CCC-ESF-1. The assay is described as follows: Anti-fibrosis activity test: inhibition of proliferation of human dermal fibroblasts CCC-ESF-1 (CCK-8). The note with it: Fibroblast; human dermal fibroblasts CCC-ESF-1, CCK-8, 48 hours. The method, boiled down:
(§1)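 After one day of adherence at 37° C in 5% CO2, cells (seeded at 2×10^4 cells/mL) received the compounds for two days in triplicate. Inhibition of proliferation was quantified with CCK-8 at 450 nm, with IC50 calculated from IR = (1−Ai/Ao)×100%.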

For the next assay, the system named is BHK-21 cells. Put plainly: Anti-fibrosis activity test: inhibition of BHK-21 cell proliferation (CCK-8). The note with it: Mesocricetus auratus, BHK-21, 48 h, CCK-8, 48 hours after administration. The method, boiled down:
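Proliferation inhibition was read as CCK-8 absorbance at 450 nm (2-hour development) relative to untreated blank, with IC50 fitted from the curve. Before that, adhered cells (2×10^4 cells/mL, 24 hours) had 48 hours' treatment at several concentrations, in triplicate, at 37° C/5% CO2; pirfenidone was the reference.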

Assay [2] concerns human lung fibroblasts HFL1. The assay is described as follows: Anti-fibrosis activity test: inhibition of proliferation of human lung fibroblasts HFL1 (CCK-8). The note with it: Homo sapiens, HFL1, 48 h, human lung fibroblasts HFL1, CCK-8, 48 hours. The method, boiled down: as §1
The test system of assay [3] is human hepatic stellate cells LX-2. Put plainly: Anti-fibrosis activity test: inhibition of proliferation of human hepatic stellate cells LX-2 (CCK-8). The note with it: Homo sapiens, 48 h, human hepatic stellate cells LX-2, CCK-8, 48 hours. The method, boiled down:
as §1

In assay [4] the test system is cardiac fibroblast RAT-iCell-C002. The assay is described as follows: Anti-fibrosis activity test: inhibition of proliferation of cardiac fibroblast RAT-iCell-C002 (CCK-8). The note with it: Cardiac fibroblast, 48 h, cardiac fibroblast RAT-iCell-C002, CCK-8, 48 hours. The method, boiled down:
as §1

Assay [5] deals with human embryonic lung fibroblast IMR-90. Put plainly: Anti-fibrosis activity test: inhibition of proliferation of human embryonic lung fibroblast IMR-90 (CCK-8). The note with it: human embryonic lung fibroblast IMR-90, CCK-8, 48 hours. The method, boiled down:
as §1

The subject of assay [6] is human fibrosarcoma cells HT-1080. The assay is described as follows: Anti-fibrosis activity test: inhibition of proliferation of human fibrosarcoma cells HT-1080 (CCK-8). The note with it: Homo sapiens, HT-1080, 48 h, human fibrosarcoma cells HT-1080, CCK-8, 48 hours. The method in brief: as §1
The test system of assay [7] is mouse macrophages (RAW264.7). The assay is described as follows: Lipopolysaccharide-induced NO secretion in macrophages (Griess). The note with it: Mus musculus, RAW264.7, 24 h, RAW264.7, LPS 1 μg/ml, a/b isomers given as first/second symbol, read-out: IC50 (μM), inhibition of lipopolysaccharide-induced NO secretion in macrophages. The method, then: The effects of the compounds of the present application on the lipopolysaccharide-induced NO secretion in macrophage was tested Principle: Anti-inflammatory drug activity screening is to detect the inhibitory effect of compounds on NO production in the mouse macrophages (RAW264.7). When immune cells are stimulated by microbial endotoxin, inflammatory mediators, etc., a large amount of induced NO synthase (iNOS) is produced, and thus NO is generated for immune response. Accordingly, the inhibition of NO production can serve as a direct indicator of the anti-inflammatory activity of the compound. The activity of the compound to inhibit NO production at the cellular level is directly evaluated in the abovementioned test model, thereby reflecting the anti-inflammatory activity of the compound. In this experiment, the content of NO in the medium was detected by Gris kit (Molecular probes, G-7921). Macrophages (Raw264.7) were cultured in DMEM medium containing 10% fetal bovine serum, with the cell concentration adjusted. The cells were seeded in 24-well cell culture plates, cultured in an incubator, and the test samples in different concentrations were added every other day. The blank medium was used as a blank control, and commercially available indomethacin and resveratrol were employed as positive controls. After the addition of lipopolysaccharide (LPS, 1 μg/ml), incubation was performed for 24 hours. Then the supernatant culture solution was taken, to […] reagent was added, and the absorbance value was measured by a microplate reader at 548 nm. Inhibition rate=([…])×100%.
For orientation: Griess reagent forms a coloured azo dye with nitrite.

The structures appear in SMILES notation.

Broadly, the IC50 is the concentration that gives 50% inhibition. Take `N#Cc1ccc2c(c1)c(=O)c1c(n2-c2ccc(F)cc2)-c2cccn2C1=O` [Compound 199a, 4-(4-Fluorophenyl)-9,10-dioxo-4,10-dihydro-9H-pyrrolizino[1,2-b]quinoline-7-carbonitrile]: the IC50 in assay [1] is 0.05 to 5 mM; with BHK-21 cells it was under 0.05 mM; in assay [2], 0.05 to 5 mM; in assay [3] it was 0.05 to 5 mM; in assay [4], 0.05 to 5 mM; in assay [5] it was 0.05 to 5 mM. In addition, the IC50 in assay [6] fell in the range of 0.05 to 5 mM; in assay [7], 1 to 10 µM.
Consider `N#Cc1ccc2nc3c(c(Oc4ccc(F)cc4)c2c1)C(=O)n1cccc1-3` [Compound 199b, 9-(4-fluorophenoxy)-10-oxo-10H-pyrrolizino[1,2-b]quinoline-7-carbonitrile], for which the IC50 (in assay [1]; in the assay with BHK-21 cells; in assay [2]; in assay [3]; in assay [4]; in assay [5]) was 0.05 to 5 mM in each case. The IC50 lay within 0.05 to 5 mM in assay [6] and 1 to 10 µM in assay [7].
For `N#Cc1ccc2c(c1)c(=O)c1c(n2-c2ccc(Cl)cc2)-c2cccn2C1=O` [Compound 210a, 4-(4-Chlorophenyl)-9,10-dioxo-4,10-dihydro-9H-pyrrolizino[1,2-b]quinoline-7-carbonitrile], the IC50 (in assay [1]; in the assay on BHK-21 cells; in assay [2]; in assay [3]; in assay [4]; in assay [5]) was 0.05 to 5 mM each time. The figures for the IC50 in assay [6] and in assay [7] were 0.05 to 5 mM and 1 to 10 µM, respectively.
Consider `N#Cc1ccc2nc3c(c(Oc4ccc(Cl)cc4)c2c1)C(=O)n1cccc1-3` [Compound 210b, 9-(4-chlorophenoxy)-10-oxo-10H-pyrrolizino[1,2-b]quinoline-7-carbonitrile], for which the IC50 (in assay [1]; with BHK-21 cells; in assay [2]; in assay [3]; in assay [4]; in assay [5]) was 0.05 to 5 mM throughout. Moreover, the IC50 in assay [6] is 0.05 to 5 mM; in assay [7], 1 to 10 µM.
Consider `O=C1c2c(n(-c3ccc(F)cc3)c3ccc(C(F)(F)F)cc3c2=O)-c2cccn21` [Compound 259a, 4-(4-Fluorophenyl)-7-(trifluoromethyl)-9H-pyrrolizino[1,2-b]quinoline-9,10(4H)-dione], for which the IC50 was in the range of 5 to 20 mM in assay [1]; 0.05 to 5 mM in the assay with BHK-21 cells; 0.05 to 5 mM in assay [2]; 0.05 to 5 mM in assay [3]; 0.05 to 5 mM in assay [4]; 0.05 to 5 mM in assay [5]. The IC50 in assay [6] is 0.05 to 5 mM; in assay [7], 1 to 10 µM.
In the case of `O=C1c2c(nc3ccc(C(F)(F)F)cc3c2Oc2ccc(F)cc2)-c2cccn21` [Compound 259b, 9-(4-fluorophenoxy)-7-(trifluoromethyl)-10H-pyrrolizino[1,2-b]quinolin-10-one], the IC50 in assay [1] is 5 to 20 mM; in the assay on BHK-21 cells, 0.05 to 5 mM; in assay [2], 0.05 to 5 mM; in assay [3] it was 0.05 to 5 mM; in assay [4], 0.05 to 5 mM; in assay [5], under 0.05 mM. The results for the half-maximal inhibitory concentration (IC50) in assay [6] and in assay [7] were 0.05 to 5 mM and 1 to 10 µM, respectively.
Consider `O=C1c2c(n(-c3ccc(Cl)cc3)c3ccc(C(F)(F)F)cc3c2=O)-c2cccn21` [Compound 276a, 4-(4-Chlorophenyl)-7-(trifluoromethyl)-9H-pyrrolizino[1,2-b]quinoline-9,10(4H)-dione], for which the IC50 in assay [1] is 0.05 to 5 mM; in the assay with BHK-21 cells, under 0.05 mM; in assay [2] it was 0.05 to 5 mM; in assay [3], 0.05 to 5 mM; in assay [4], 5 to 20 mM; in assay [5] it was 0.05 to 5 mM. Also, the IC50 in assay [6] fell in the range of 0.05 to 5 mM; in assay [7], 0.1 to 1 µM.
As for `O=C1c2c(nc3ccc(C(F)(F)F)cc3c2Oc2ccc(Cl)cc2)-c2cccn21` [Compound 276b, 9-(4-chlorophenoxy)-7-(trifluoromethyl)-10H-pyrrolizino[1,2-b]quinolin-10-one], the IC50 (in assay [1]; with BHK-21 cells; in assay [2]; in assay [3]; in assay [4]; in assay [5]) was 0.05 to 5 mM in each case. In addition, the concentration for half-maximal inhibition (IC50) in assay [6] lay within 0.05 to 5 mM; in assay [7], 1 to 10 µM.
`O=C1c2c(n(-c3ccc(Cl)cc3)c3ccc(OC(F)(F)F)cc3c2=O)-c2cccn21` [Compound 300a, 4-(4-Chlorophenyl)-7-(trifluoromethoxy)-9H-pyrrolizino[1,2-b]quinoline-9,10(4H)-dione]: the IC50 in assay [1] was in the range of 0.05 to 5 mM; in the assay with BHK-21 cells, 5 to 20 mM; in assay [2] it was 0.05 to 5 mM; in assay [3], 0.05 to 5 mM; in assay [4] it was 0.05 to 5 mM; in assay [5] it was 0.05 to 5 mM. For the same compound, the figures for the IC50 in assay [6] and in assay [7] were 0.05 to 5 mM and 0.1 to 1 µM, respectively.
For `O=C1c2c(nc3ccc(OC(F)(F)F)cc3c2Oc2ccc(Cl)cc2)-c2cccn21` [Compound 300b, 9-(4-chlorophenoxy)-7-(trifluoromethoxy)-10H-pyrrolizino[1,2-b]quinolin-10-one], the IC50 (in assay [1]; with BHK-21 cells; in assay [2]; in assay [3]; in assay [4]; in assay [5]) was 0.05 to 5 mM throughout. The results for the half-maximal inhibitory concentration (IC50) in assay [6] and in assay [7] were 0.05 to 5 mM and 1 to 10 µM, respectively.
`CCn1c2c(c(=O)c3cc(F)c(N4CCNCC4)cc31)C(=O)n1cccc1-2` [Compound 329a, 4-Ethyl-7-fluoro-6-(piperazin-1-yl)-9H-pyrrolizino[1,2-b]quinoline-9,10(4H)-dione]: the IC50 in assay [1] fell in the range of 0.05 to 5 mM; in the assay on BHK-21 cells it was 0.05 to 5 mM; in assay [2], 0.05 to 5 mM; in assay [3] it was 0.05 to 5 mM; in assay [4], 5 to 20 mM; in assay [5], 0.05 to 5 mM. Moreover, the IC50 in assay [6] lay within 0.05 to 5 mM; in assay [7], 1 to 10 µM.
Regarding `CCOc1c2c(nc3cc(N4CCNCC4)c(F)cc13)-c1cccn1C2=O` [Compound 329b, 9-ethoxy-7-fluoro-6-(piperazin-1-yl)-10H-pyrrolizino[1,2-b]quinolin-10-one], the IC50 in assay [1] is 0.05 to 5 mM; in the assay with BHK-21 cells it was 0.05 to 5 mM; in assay [2], 0.05 to 5 mM; in assay [3], 0.05 to 5 mM; in assay [4], under 0.05 mM; in assay [5], 0.05 to 5 mM. The IC50 fell in the range of 0.05 to 5 mM in assay [6] and 1 to 10 µM in assay [7].
As for `CC(C)n1c2c(c(=O)c3cc(F)c(N4CCNCC4)cc31)C(=O)n1cccc1-2` [Compound 331a, 7-Fluoro-4-isopropyl-6-(piperazin-1-yl)-9H-pyrrolizino[1,2-b]quinoline-9,10(4H)-dione], the IC50 (in assay [1]; with BHK-21 cells; in assay [2]; in assay [3]; in assay [4]; in assay [5]) was 0.05 to 5 mM each time. The IC50 in assay [6] is 0.05 to 5 mM; in assay [7], 1 to 10 µM.
Turning to `CC(C)Oc1c2c(nc3cc(N4CCNCC4)c(F)cc13)-c1cccn1C2=O` [Compound 331b, 7-fluoro-9-isopropoxy-6-(piperazin-1-yl)-10H-pyrrolizino[1,2-b]quinolin-10-one], the IC50 (in assay [1]; in the assay on BHK-21 cells; in assay [2]; in assay [3]; in assay [4]; in assay [5]) was 0.05 to 5 mM in each case. The IC50 in assay [6] is under 0.05 mM; in assay [7] it was 1 to 10 µM.

For the origin of these results see patent publication US11040028B2, “Penicinotam derivative, preparation method and use thereof” (OCEAN UNIVERSITY OF CHINA, priority 2017, dated 2021).
